In article PMC11464717, “Structural basis for antibiotic transport and inhibition in PepT2” (Nature Communications, 2024):
“And” between values parts separate entries of the source, which are not always exact repeats. Equal values may be shown once. Read-outs that look alike come from different tables or passages of the source. Where a SMILES comes first, the peptide text is derived from it.

Experiments:
rat PepT2 [1] = target: T1, rat PepT2 (Rattus norvegicus, UniProt Q63424); test: Inhibition of uptake of radioactive di-alanine peptide into PepT2 proteoliposomes (IC50); format: biochemical
T1 construct: His-tagged GFP (C, cleaved yes); made in house; host or cells: HEK293F cells
T1 sequence (Q63424 1-729): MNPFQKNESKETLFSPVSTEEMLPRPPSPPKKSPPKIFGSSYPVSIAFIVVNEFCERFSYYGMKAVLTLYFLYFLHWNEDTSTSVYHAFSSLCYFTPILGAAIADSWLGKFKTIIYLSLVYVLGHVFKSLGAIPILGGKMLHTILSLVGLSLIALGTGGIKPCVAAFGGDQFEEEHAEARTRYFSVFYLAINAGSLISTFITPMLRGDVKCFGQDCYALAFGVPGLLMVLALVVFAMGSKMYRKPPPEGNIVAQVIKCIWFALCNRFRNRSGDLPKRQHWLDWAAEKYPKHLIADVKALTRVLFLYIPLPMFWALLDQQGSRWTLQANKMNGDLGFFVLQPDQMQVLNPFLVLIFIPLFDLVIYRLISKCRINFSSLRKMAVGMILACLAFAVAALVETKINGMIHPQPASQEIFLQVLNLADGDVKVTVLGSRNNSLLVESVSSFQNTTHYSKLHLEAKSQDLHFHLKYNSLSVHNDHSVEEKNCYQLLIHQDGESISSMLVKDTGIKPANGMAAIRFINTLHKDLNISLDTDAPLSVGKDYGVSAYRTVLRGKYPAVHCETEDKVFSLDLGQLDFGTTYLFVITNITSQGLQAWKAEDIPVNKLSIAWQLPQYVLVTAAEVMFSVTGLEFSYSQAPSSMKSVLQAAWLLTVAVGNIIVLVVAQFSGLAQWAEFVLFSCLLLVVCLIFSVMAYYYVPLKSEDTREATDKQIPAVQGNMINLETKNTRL
Method: (§1) The lipids were dried to obtain a thin film using a rotary evaporator and washed twice in pentane before being resuspended at 10 mg mL^–1 in lipid buffer (50 mM potassium phosphate at pH 7.5). These lipid vesicles were frozen and thawed twice in liquid nitrogen and stored at −80 °C until required. For reconstitution, the lipids were thawed and then extruded first through a 0.8-μm filter and then through a 0.4-μm filter. Purified PepT2 at 0.3 μg μl^−1 was added to the lipids at a final lipid:protein ratio of 100:1 (w/w) for transport assays or 10:1 for solid support membrane (SSM) experiments and incubated for 1 h at room temperature, then for a further 1 h on ice. After this time, biobeads were added in batches. After 24 h biobeads were removed and the proteoliposomes harvested by centrifugation at 120,000 g for 40 min before resuspension in lipid buffer at a final protein concentration of 0.25 μg μl^−1, or 0.5 ug ul^−1 for liposomes for SSM. They were subjected to three rounds of freeze–thawing in liquid nitrogen before storage at −80 °C.
The reaction was initiated through the addition of valinomycin at 1 μM and stopped after 4 minutes by rapidly filtering onto 0.22-μm filters, which were then washed with 2 × 2 mL cold water. […] Experiments were performed three times (from at least 2 independent purifications and reconstitutions) to generate an overall mean and s.d.

rat PepT2 [2] = target: T1, rat PepT2; test: Counterflow transport assay in PepT2 proteoliposomes; format: biochemical; details: for Counterflow activity relative to L-Ala-L-Ala: Supplementary Table 2, RnPepT2 reconstituted liposome assay; for Counterflow transport, individual experiments (source data Fig 1d): relative to di-alanine; for Ability to drive transport in counterflow: result in words, cloxacillin also at 10 mM
Method: as §1, with “PepT2 was reconstituted into liposomes consisting of a 3:1 POPE:POPG (Avanti polar lipids, USA, Cat. No. 850757 C, 840457 C) using biobeads. The lipids” for “The lipids”
Proteoliposomes were harvested through centrifugation before resuspending in counterflow buffer (50 mM potassium phosphate pH 7.5) containing 0.5 mM peptide or antibiotic (unless stated otherwise) or water as the negative control and were subjected to four rounds of freeze thawing in liquid nitrogen to fully distribute the buffer and ligand. The proteoliposomes were then extruded through a 0.2-μm filter. Transport was initiated by diluting into counterflow buffer containing 40 μM di-alanine with trace amounts of ^3H di-alanine, transport was allowed to proceed for 5 minutes before termination of the experiments through rapidly filtering onto 0.22-μm filters, which were then washed with 2 × 2 mL cold water. The amount of peptide transported inside the liposomes was calculated as above. Experiments were performed a minimal of five times and plotted as the level of transport for each ligand compared to the level observed with di-alanine as a percentage.

[3] = target: T2, PepT2 (SLC15A2) from Rattus norvegicus (Rattus norvegicus, UniProt Q63424)
T2 construct: Proton-coupled peptide transporter PepT2 (SLC15A2), Rattus norvegicus; The extracellular domain is in the protein but was not built in the deposited models; also called rat PepT2; ratPepT2; source: HEK293F, transfected, purified (nickel NTA, TEV cleavage, SEC) in DDM:CHS; also reconstituted into POPE:POPG liposomes; not shown: GFP, C-terminal, cleaved; His tag, C-terminal, cleaved

rat PepT2 [4] = target: T1, rat PepT2; test: SSM-based electrophysiology (SURFE2R) of reconstituted PepT2; format: biochemical; details: result in words
Method: as §1, with “PepT2 was reconstituted into liposomes consisting of a 3:1 POPE:POPG (Avanti polar lipids, USA, Cat. No. 850757 C, 840457 C) using biobeads. The lipids” for “The lipids”
SSM-based assays were performed on a SURFE^2R N1 (Nanion Technologies) with sensors prepared as follows. 50 μl of 0.5 mM 1-octadecanethiol solution in isopropanol was added to the sensor and left overnight. The sensor was rinsed three times with isopropanol and then three times with water before being allowed to dry. 1.5 ul of 7.5 μg/μl 1,2-diphytanoyl-sn-glycero-3-phosphocholin in n-decane was applied to the surface of the sensor. Immediately after this 50 ul of non-activating buffer were added and left for an hour at room temperature. Proteoliposomes were diluted (5 ul liposomes with 36 ul buffer) in non-activating buffer (20 mM HEPES, 140 mM KCl, 2 mM MgCl2 pH 7.2) and sonicated four times for 10 s in a water bath before application (2–6 μl) to the prepared 3 mm sensors. Sensors were incubated at room temperature and centrifugation at 2800 g for 30 min at 10 °C and incubated at room temperature for at least an hour prior to assaying. The activating buffer was made with the desired concentration of ligand (alanine, di-alanine, or the antibiotics of interest) in non-activating buffer. A single solution exchange workflow was used with activating buffer applied at 1 s and removed at 2 s. This technique was used to distinguish between antibiotics substrate (gives a current, similar to a known peptide control – di-alanine) and inhibitor (no current observed similar to a known non substrate, alanine) and raw traces from 1–3 s are shown in Fig. 1.

PepT2 = details: cell-based assays, inhibition of a radioactive reporter peptide; cited from earlier work
[5] = target: T2, PepT2 (SLC15A2) from Rattus norvegicus; test: cryo-EM structure; PepT2 after size exclusion (DDM:CHS) mixed with 1 mM antibiotic (cefadroxil, amoxicillin or cloxacillin) for one hour, then 1.2 molar excess of nanobody D8, on ice for at least 30 min; PepT2 at 5-6 mg/mL; details: both partners purified
[6] = single independent experiments, 3 per ligand, read-out: IC50, individual experiments (source data Fig 1c)
[7] = 5 min, read-out: Counterflow activity relative to L-Ala-L-Ala
[8] = Supplementary Table 2, RnPepT2 reconstituted liposome assay, read-out: IC50 (µM) relative to L-Ala-L-Ala
[9] = rat PepT2 in liposomes, inhibition of 3H di-alanine uptake, 4 minutes, mean of n = 3 (SD), read-out: IC50
[10] = 0.5 mM ligand, listed as Ala-Ala
[11] = IC50, rat PepT2 in liposomes, inhibition of 3H di-alanine uptake, 4 minutes, mean of n = 3 (SD)

Molecule: N[C@@H](C(=O)N[C@@H]1C(=O)N2C(C(=O)O)=C(Cl)CS[C@H]12)c1ccccc1 [Cefaclor, cefaclor]
- IC50 (rat PepT2 [1]; [6]): 55 µM and 58 µM and 42 µM
- Counterflow transport, individual experiments (source data Fig 5a) (rat PepT2 [2]; 0.5 mM ligand): 82 and 72.2 and 77.1 and 71.3
- Counterflow activity relative to L-Ala-L-Ala (rat PepT2 [2]; [7]): 76%
- Counterflow activity relative to di-alanine (rat PepT2 [2]; uptake of 3H di-alanine, 5 minutes, level relative to di-alanine, 0.5 mM ligand unless stated otherwise): 76%

Molecule: di-alanine peptide
- IC50 of inhibition of the uptake of radioactive (3H) di-alanine into PepT2 proteoliposomes [3]: 32 µM

Molecule: CC1=C(C(=O)O)N2C(=O)[C@@H](NC(=O)[C@H](N)c3ccc(O)cc3)[C@H]2SC1 [Cefadroxil, cefadroxil]
- Capacitance change / current on solid support membrane (rat PepT2 [4]): significant capacitance change
- IC50 (rat PepT2 [1]; [8]): 20 µM
- IC50 (rat PepT2 [1]; [9]): 19 µM
- IC50 (rat PepT2 [1]; [6]): 22 µM and 17 µM
- Counterflow transport, individual experiments (source data Fig 1d) (rat PepT2 [2]; 0.5 mM ligand): 117 and 120.6 and 118 and 125 and 128
- Counterflow activity relative to L-Ala-L-Ala (rat PepT2 [2]; [7]): 120%
- Ability to drive transport in counterflow (rat PepT2 [2]): more effectively than di-alanine
- Ki (PepT2): 3 µM

Molecule: C[C@H](N)C(=O)N[C@@H](C)C(=O)O [di-alanine, L-Ala-L-Ala] (H-Ala-Ala-OH)
- Capacitance change / current on solid support membrane (rat PepT2 [4]): significant capacitance change
- IC50 (rat PepT2 [1]; [9]): 32 µM
- IC50 (rat PepT2 [1]; single independent experiments, 3 per ligand, listed as Ala-Ala, read-out: IC50, individual experiments (source data Fig 1c)): 34.6 µM and 31.2 µM and 29.4 µM
- Counterflow transport, individual experiments (source data Fig 1d) (rat PepT2 [2]; [10]): 100 and 99.8 and 108.7 and 97.1 and 95.2
- Counterflow transport, individual experiments (source data Fig 5a) (rat PepT2 [2]; [10]): 97.2 and 101.1 and 99.1 and 100.3
- Counterflow activity relative to L-Ala-L-Ala (rat PepT2 [2]): 100

Molecule: C[C@H](N)C(=O)O [alanine]
- Capacitance change / current on solid support membrane (rat PepT2 [4]): non-transported

Molecule: CO[C@@]1(NC(=O)C(C(=O)O)c2ccc(O)cc2)C(=O)N2C(C(=O)O)=C(CSc3nnnn3C)CO[C@@H]21 (stereo partly drawn) [Moxalactam, moxalactam]
- IC50 (rat PepT2 [1]; [9]): 500 µM
- Counterflow transport, individual experiments (source data Fig 5a) (rat PepT2 [2]; 1 mM ligand): 5.6 and 5.3 and 6.5 and 4.2
- Counterflow activity relative to L-Ala-L-Ala (rat PepT2 [2]; [7]): 0%
- Ability to drive transport in counterflow (rat PepT2 [2]): cannot transport

Molecule: Nc1nc(/C(=C/CC(=O)O)C(=O)N[C@@H]2C(=O)N3C(C(=O)O)=CCS[C@H]23)cs1 [Ceftibuten, ceftibuten]
- IC50 (rat PepT2 [1]; [8]): 1200 µM
- IC50 (rat PepT2 [1]; rat PepT2 in liposomes, inhibition of 3H di-alanine uptake, read-out: IC50): 1000 µM
- Counterflow transport, individual experiments (source data Fig 5a) (rat PepT2 [2]; 4 mM ligand): 6.7 and 5.6 and 6.9
- Counterflow activity relative to L-Ala-L-Ala (rat PepT2 [2]; [7]): 0%
- Ability to drive transport in counterflow (rat PepT2 [2]): cannot transport

Molecule: CC1(C)S[C@@H]2[C@H](NC(=O)[C@H](N)c3ccccc3)C(=O)N2[C@H]1C(=O)O [Ampicillin, ampicillin]
- IC50 (rat PepT2 [1]; [11]): 750 µM

Molecule: Cc1onc(-c2ccccc2Cl)c1C(=O)N[C@@H]1C(=O)N2[C@@H]1SC(C)(C)[C@@H]2C(=O)O [Cloxacillin, cloxacillin]
- IC50 (rat PepT2 [1]; [11]): 203 µM
- IC50 (rat PepT2 [1]; [6]): 180 µM and 220 µM and 210 µM
- Counterflow transport, individual experiments (source data Fig 1d) (rat PepT2 [2]; 0.5 mM ligand): 4.1 and 3.2 and 4 and 1 and 3.1
- Counterflow transport, individual experiments (source data Fig 1d) (rat PepT2 [2]; 10 mM ligand): 2.7 and 1.2 and 5.4 and 3.4 and 2.5
- Counterflow activity relative to L-Ala-L-Ala (rat PepT2 [2]; [7]): 0%
- Ability to drive transport in counterflow (rat PepT2 [2]): unable to drive transport
- Ki (PepT2): 1000 µM

Molecule: CC1(C)S[C@@H]2[C@H](NC(=O)[C@H](N)c3ccc(O)cc3)C(=O)N2[C@H]1C(=O)O [Amoxicillin, amoxicillin]
- Capacitance change / current on solid support membrane (rat PepT2 [4]): significant capacitance change
- IC50 (rat PepT2 [1]; [9]): 270 µM
- IC50 (rat PepT2 [1]; [6]): 225 µM and 301 µM and 280 µM
- Counterflow transport, individual experiments (source data Fig 1d) (rat PepT2 [2]; 0.5 mM ligand, listed as Amoxacillin): 29 and 39.2 and 34.1 and 35 and 28
- Counterflow activity relative to L-Ala-L-Ala (rat PepT2 [2]; [7]): 33%
- Ki (PepT2): 200 to 430 µM

Molecule: N[C@@H](CCCCNC(=O)OCc1ccc([N+](=O)[O-])cc1)C(=O)N1CCC[C@H]1C(=O)O [LZNP, Lys [Z(NO2)]-Proline]
- Counterflow transport, individual experiments (source data Fig 1d) (rat PepT2 [2]; 0.5 mM ligand): 3.8 and 4.1 and 6.1 and 5.4

Molecule: CC1(C)S[C@@H]2[C@H](NC(=O)Cc3ccccc3)C(=O)N2[C@H]1C(=O)O [Benzylpenicillin, benzylpenicillin]
- Counterflow transport, individual experiments (source data Fig 5a) (rat PepT2 [2]; 10 mM ligand): 7.2 and 6.8 and 6.2 and 4.1
- Counterflow activity relative to L-Ala-L-Ala (rat PepT2 [2]; [7]): 0%
- Ability to drive transport in counterflow (rat PepT2 [2]): cannot transport

B1: nanobody (D8) (VHH)
VHH: QVQLVESGGGLVQPGGSLRLLCVASGRPFNDYDMGWFRQAPGKEREFVASISWSGRVTDYSDSMKGRCTVSRDNAKGTMFLQMSNLVPRDTAVYYCAAARRRWTFKATNTEEFYETWGQGTQVTVSS
notes: The nanobody was in the complexes solved here (PDB 9BIR, 9BIS, 9BIT, 9BIU); Its expression plasmid is deposited at Addgene; also called the nanobody
- binding result [5]: binds
